The target in assay [1] is T1, Ubiquitin carboxyl-terminal hydrolase 30 (Homo sapiens) (UniProt Q70CQ3).
T1 sequence (whole entry): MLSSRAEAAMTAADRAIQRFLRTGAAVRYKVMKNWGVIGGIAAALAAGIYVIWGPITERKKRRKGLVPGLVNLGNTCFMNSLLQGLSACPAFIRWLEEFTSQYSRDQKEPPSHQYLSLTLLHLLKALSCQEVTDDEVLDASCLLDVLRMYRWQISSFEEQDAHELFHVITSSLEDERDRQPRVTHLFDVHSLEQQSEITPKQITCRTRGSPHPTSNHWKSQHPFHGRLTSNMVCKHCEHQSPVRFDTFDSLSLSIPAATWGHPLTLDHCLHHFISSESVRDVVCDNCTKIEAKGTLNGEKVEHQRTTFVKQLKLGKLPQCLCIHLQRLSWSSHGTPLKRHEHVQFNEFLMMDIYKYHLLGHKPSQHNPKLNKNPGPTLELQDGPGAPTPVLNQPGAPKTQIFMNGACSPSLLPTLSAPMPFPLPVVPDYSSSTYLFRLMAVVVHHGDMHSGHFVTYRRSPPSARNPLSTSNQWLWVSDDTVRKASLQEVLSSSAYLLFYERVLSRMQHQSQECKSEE
The assay can be described thus: Inhibition of human USP30 (57 to 517 residues) expressed in Sf9 cells using ubiquitin rhodamine 110 as substrate assessed as remaining enzyme activity at 10 to 50 uM by fluorometric assay. The conditions noted are these: dose 10-50 µM.

Assay [2] has as its target T2, Ubiquitin carboxyl-terminal hydrolase 15 (Homo sapiens) (UniProt Q9Y4E8).
T2 sequence (whole entry): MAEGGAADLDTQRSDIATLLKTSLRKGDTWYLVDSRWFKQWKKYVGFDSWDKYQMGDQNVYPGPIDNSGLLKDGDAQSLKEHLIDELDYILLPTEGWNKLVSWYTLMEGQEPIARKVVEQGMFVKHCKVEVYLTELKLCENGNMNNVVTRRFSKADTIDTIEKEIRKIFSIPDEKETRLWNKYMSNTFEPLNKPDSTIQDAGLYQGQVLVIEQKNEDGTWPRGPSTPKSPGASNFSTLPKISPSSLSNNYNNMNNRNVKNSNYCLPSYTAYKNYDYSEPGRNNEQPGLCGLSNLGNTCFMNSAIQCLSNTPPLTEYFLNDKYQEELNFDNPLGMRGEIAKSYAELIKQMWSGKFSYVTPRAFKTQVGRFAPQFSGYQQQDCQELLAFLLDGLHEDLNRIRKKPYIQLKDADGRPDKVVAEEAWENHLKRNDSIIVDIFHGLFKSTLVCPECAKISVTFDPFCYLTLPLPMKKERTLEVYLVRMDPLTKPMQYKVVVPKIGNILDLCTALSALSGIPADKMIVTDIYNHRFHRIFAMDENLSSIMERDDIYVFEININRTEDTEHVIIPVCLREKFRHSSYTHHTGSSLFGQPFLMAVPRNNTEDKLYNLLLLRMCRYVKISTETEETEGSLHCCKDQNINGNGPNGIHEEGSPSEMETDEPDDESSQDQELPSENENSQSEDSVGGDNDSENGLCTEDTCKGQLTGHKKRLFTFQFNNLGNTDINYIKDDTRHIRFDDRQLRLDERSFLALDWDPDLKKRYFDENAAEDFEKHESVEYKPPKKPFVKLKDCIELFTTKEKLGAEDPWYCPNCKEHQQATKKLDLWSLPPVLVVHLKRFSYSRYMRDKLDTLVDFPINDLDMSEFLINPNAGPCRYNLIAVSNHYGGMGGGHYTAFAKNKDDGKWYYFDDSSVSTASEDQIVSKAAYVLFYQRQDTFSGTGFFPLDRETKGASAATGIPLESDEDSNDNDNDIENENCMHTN
The assay can be described thus: Inhibition of human USP15 (1 to 952 residues) expressed in Sf9 cells using ubiquitin rhodamine 110 as substrate assessed as remaining enzyme activity at 10 to 50 uM by fluorometric assay. The conditions noted are these: dose 10-50 µM.

Assay [3] addresses Ubiquitin carboxyl-terminal hydrolase 7 (Homo sapiens) (UniProt Q93009). Put plainly: Inhibition of human USP7 using ubiquitin rhodamine 110 as substrate at 10 to 50 uM by fluorometric assay. The conditions noted are these: dose 10-50 µM.
For a further assay, the system named is U2OS. Put plainly: Antiproliferative activity against human U2OS cells assessed as reduction in cell viability up to 30 uM incubated for 72 hrs by CellTiter-Glo luminescent assay. In kind it is functional, cell-based. For orientation: Cellular ATP, detected with luciferase, serves as a proxy for viable cell number.
Another assay has as its system Jurkat. The assay can be described thus: Antiproliferative activity against human Jurkat cells assessed as reduction in cell viability up to 30 uM incubated for 72 hrs by CellTiter-Glo luminescent assay. In kind it is functional, cell-based.
The target in assay [4] is T3, Ubiquitin carboxyl-terminal hydrolase 8 (Homo sapiens) (UniProt P40818).
T3 sequence (whole entry): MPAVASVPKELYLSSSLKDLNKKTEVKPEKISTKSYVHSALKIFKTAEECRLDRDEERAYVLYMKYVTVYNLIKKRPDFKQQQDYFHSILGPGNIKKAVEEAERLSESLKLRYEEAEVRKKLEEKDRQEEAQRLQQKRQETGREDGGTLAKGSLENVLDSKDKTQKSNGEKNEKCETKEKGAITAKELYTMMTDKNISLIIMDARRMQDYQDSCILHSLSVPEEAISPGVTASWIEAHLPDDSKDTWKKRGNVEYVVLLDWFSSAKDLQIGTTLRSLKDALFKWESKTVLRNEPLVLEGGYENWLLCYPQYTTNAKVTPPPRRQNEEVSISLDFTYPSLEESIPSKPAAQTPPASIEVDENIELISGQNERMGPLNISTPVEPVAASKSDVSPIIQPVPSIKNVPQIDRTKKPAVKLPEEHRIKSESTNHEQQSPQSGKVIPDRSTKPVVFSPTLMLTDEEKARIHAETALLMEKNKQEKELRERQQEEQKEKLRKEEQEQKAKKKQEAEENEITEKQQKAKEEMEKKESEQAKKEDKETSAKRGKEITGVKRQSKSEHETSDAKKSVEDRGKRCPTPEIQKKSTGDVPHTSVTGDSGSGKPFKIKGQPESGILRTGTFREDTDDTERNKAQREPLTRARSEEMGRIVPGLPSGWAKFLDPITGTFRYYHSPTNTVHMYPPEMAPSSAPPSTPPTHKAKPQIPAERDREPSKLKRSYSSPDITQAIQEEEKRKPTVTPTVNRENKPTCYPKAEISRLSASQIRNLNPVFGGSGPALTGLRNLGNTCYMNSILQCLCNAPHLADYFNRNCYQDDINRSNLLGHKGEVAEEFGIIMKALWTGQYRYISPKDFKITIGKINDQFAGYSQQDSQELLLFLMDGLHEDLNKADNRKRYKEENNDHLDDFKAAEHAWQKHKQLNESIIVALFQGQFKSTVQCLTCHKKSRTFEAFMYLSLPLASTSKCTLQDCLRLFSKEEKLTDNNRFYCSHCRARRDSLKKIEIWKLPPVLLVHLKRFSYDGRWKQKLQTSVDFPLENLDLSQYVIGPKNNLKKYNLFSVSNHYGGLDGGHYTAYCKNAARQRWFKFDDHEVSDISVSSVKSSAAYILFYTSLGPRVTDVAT
Put plainly: Inhibition of human USP8 using ubiquitin rhodamine 110 as substrate at 10 to 50 uM by fluorometric assay. The conditions noted are these: dose 10-50 µM.

The text below walks through data of ChEMBL document CHEMBL5247643, “Discovery and Characterization of BAY-805, a Potent and Selective Inhibitor of Ubiquitin-Specific Protease USP21” (J Med Chem, 2023).

Activity calls are given as the source filed them. The calls are words filed in the database; no cut-off is given here. Some results are limits rather than exact numbers.

Chain of Ubiquitin carboxyl-terminal hydrolase 7 (Homo sapiens) (Q93009 whole entry, looked up): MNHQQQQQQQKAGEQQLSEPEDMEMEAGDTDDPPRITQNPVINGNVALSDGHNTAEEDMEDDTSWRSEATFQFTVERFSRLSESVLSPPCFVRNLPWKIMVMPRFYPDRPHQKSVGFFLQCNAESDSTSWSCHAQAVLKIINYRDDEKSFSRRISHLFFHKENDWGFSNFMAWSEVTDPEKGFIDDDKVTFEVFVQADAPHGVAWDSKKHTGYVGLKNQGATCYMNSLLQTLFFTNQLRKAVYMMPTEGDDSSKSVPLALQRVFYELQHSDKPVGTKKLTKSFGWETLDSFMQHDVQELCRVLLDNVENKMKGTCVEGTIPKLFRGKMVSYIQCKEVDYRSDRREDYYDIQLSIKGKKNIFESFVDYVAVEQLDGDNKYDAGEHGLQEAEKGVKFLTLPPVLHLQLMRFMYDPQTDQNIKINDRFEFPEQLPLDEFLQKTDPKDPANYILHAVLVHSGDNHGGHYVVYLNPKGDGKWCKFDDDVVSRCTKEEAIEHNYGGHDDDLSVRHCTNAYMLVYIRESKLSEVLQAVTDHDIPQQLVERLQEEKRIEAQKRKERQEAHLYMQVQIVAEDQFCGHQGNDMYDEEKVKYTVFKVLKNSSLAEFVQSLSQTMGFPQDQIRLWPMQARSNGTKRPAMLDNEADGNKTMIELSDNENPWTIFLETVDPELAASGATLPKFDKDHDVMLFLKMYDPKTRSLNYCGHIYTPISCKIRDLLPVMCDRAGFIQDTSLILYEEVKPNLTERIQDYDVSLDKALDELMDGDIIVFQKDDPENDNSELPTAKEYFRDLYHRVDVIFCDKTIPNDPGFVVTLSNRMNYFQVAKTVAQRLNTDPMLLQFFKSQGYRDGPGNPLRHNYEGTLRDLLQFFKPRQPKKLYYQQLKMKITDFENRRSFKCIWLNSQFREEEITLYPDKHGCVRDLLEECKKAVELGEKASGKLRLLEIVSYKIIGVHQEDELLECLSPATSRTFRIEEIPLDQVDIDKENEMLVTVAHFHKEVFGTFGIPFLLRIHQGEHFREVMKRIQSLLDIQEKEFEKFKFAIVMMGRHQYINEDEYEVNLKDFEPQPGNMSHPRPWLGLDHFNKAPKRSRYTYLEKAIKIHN

Take `CC(NC(=O)C1CCCC1)C(=O)Nc1nnc(Cc2ccc([N+](=O)[O-])cc2)s1` (racemic): the Activity in assay [1] and in assay [2] was under 50% each time.

In the case of `CC(C)C[C@H](NC(=O)C1(C(F)(F)F)CCCCC1)C(=O)Nc1nnc(Cc2ccc(C#N)cc2)s1`, the inhibition entry in assay [3] and in assay [4] was “inactive” each time. Also, the result in the assay on U2OS and with Jurkat was inactive.
